Assay results: ChEMBL document CHEMBL4145540 (Eur J Med Chem, 2018)
The source made the active and inactive calls. The rule behind the calls is not given here.

How the values were obtained:
HEK293 = experiment: Antiproliferative activity against HEK293 cells after 2 days by MTT assay; assay type: cell-based; details: Homo sapiens, HEK293, 48 h
A549 [1] = experiment: Cell cycle arrest in human A549 cells assessed as accumulation at G2/M phase at 200 nM after 20 hrs by propidium iodide staining based flow cytometry (reference value: 11 +/- 1%); assay type: functional
A549 [2] = experiment: Cell cycle arrest in human A549 cells assessed as accumulation at G0/G1 phase at 200 nM after 20 hrs by propidium iodide staining based flow cytometry (reference value: 66 +/- 1%); assay type: functional
MDA-MB-231 [3] = experiment: Antiproliferative activity against human MDA-MB-231 cells after 3 days by coulter counting method; assay type: functional, cell-based; details: MDA-MB-231, 72 h
HeLa = experiment: Antiproliferative activity against human HeLa cells after 2 days by MTT assay; assay type: functional, cell-based; details: 48 h
A549 [4] = experiment: Cell cycle arrest in human A549 cells assessed as accumulation at S phase at 200 nM after 20 hrs by propidium iodide staining based flow cytometry (reference value: 16 +/- 1%); assay type: functional
HT-29 = experiment: Antiproliferative activity against human HT-29 cells after 2 days by MTT assay; assay type: functional, cell-based; details: HT-29, 48 h
HL-60 = experiment: Antiproliferative activity against human HL60 cells after 2 days by MTT assay; assay type: functional, cell-based; details: HL-60, 48 h
A549 [5] = experiment: Antiproliferative activity against human A549 cells after 2 days by MTT assay; assay type: functional, cell-based; details: A549, 48 h
A549 [6] = experiment: Cell cycle arrest in human A549 cells assessed as accumulation at sub-G0 phase at 200 nM after 20 hrs by propidium iodide staining based flow cytometry (reference value: 6.6 +/- 0.1%); assay type: functional
MCF7 = experiment: Antiproliferative activity against human MCF7 cells after 2 days by MTT assay; assay type: functional, cell-based; details: MCF7, 48 h
HMEC-1 [7] = experiment: Antiproliferative activity against HMEC1 cells after 2 days by MTT assay; assay type: functional, cell-based; details: Homo sapiens, HMEC-1, 48 h
A549 [8] = experiment: Cell cycle arrest in human A549 cells assessed as accumulation at G0/G1 phase at 80 nM after 20 hrs by propidium iodide staining based flow cytometry (reference value: 66 +/- 1%); assay type: functional
MDA-MB-231 [9] = experiment: Inhibition of EBI binding to beta-tubulin colchicine binding site in human MDA-MB-231 cells at 3 uM preincubated for 16 hrs followed by EBI addition and measured after 1.5 hrs by Western blot analysis; assay type: cell-based
A549 [10] = experiment: Cell cycle arrest in human A549 cells assessed as accumulation at sub-G0 phase at 80 nM after 20 hrs by propidium iodide staining based flow cytometry (reference value: 6.6 +/- 0.1%); assay type: functional
A549 [11] = experiment: Induction of apoptosis in human A549 cells after 24 hrs by Annexin V-FITC/propidium iodide staining based flow cytometry; assay type: functional, cell-based
A549 [12] = experiment: Induction of apoptosis in human A549 cells at 10 nM after 24 hrs by Annexin V-FITC/propidium iodide staining based flow cytometry (reference value: 28%); assay type: functional
HMEC-1 [13] = experiment: Vascular disruptive activity in HMEC1 cells assessed as disruption of preformed tubular networks after 4 hrs by matrigel based assay; assay type: functional, cell-based; details: Homo sapiens
A549 [14] = experiment: Cell cycle arrest in human A549 cells assessed as accumulation at G2/M phase at 80 nM after 20 hrs by propidium iodide staining based flow cytometry (reference value: 11 +/- 1%); assay type: functional
A549 [15] = experiment: Cell cycle arrest in human A549 cells assessed as accumulation at S phase at 80 nM after 20 hrs by propidium iodide staining based flow cytometry (reference value: 16 +/- 1%); assay type: functional
A549 [16] = experiment: Induction of apoptosis in human A549 cells at 100 nM after 24 hrs by Annexin V-FITC/propidium iodide staining based flow cytometry (reference value: 28%); assay type: functional
A549 [17] = experiment: Cell cycle arrest in human A549 cells assessed as accumulation at G2/M phase at 65 nM after 20 hrs by propidium iodide staining based flow cytometry (reference value: 11 +/- 1%); assay type: functional
A549 [18] = experiment: Cell cycle arrest in human A549 cells assessed as accumulation at sub-G0 phase at 65 nM after 20 hrs by propidium iodide staining based flow cytometry (reference value: 6.6 +/- 0.1%); assay type: functional
A549 [19] = experiment: Disruption of microtubule network in human A549 cells assessed as appearance of tubulin aggregates at 260 nM after 16 hrs by Hoechst staining based immunofluorescence assay; assay type: cell-based
A549 [20] = experiment: Cell cycle arrest in human A549 cells assessed as accumulation at S phase at 65 nM after 20 hrs by propidium iodide staining based flow cytometry (reference value: 16 +/- 1%); assay type: functional
A549 [21] = experiment: Disruption of microtubule network in human A549 cells assessed as appearance of compressed and fragmented nuclei at 260 nM after 16 hrs by Hoechst staining based immunofluorescence assay; assay type: cell-based
A549 [22] = experiment: Cell cycle arrest in human A549 cells assessed as accumulation at G0/G1 phase at 65 nM after 20 hrs by propidium iodide staining based flow cytometry (reference value: 66 +/- 1%); assay type: functional
A549 [23] = experiment: Cell cycle arrest in human A549 cells assessed as accumulation at S phase at 750 nM after 20 hrs by propidium iodide staining based flow cytometry (reference value: 16 +/- 1%); assay type: functional
A549 [24] = experiment: Cell cycle arrest in human A549 cells assessed as accumulation at G2/M phase at 750 nM after 20 hrs by propidium iodide staining based flow cytometry (reference value: 11 +/- 1%); assay type: functional
A549 [25] = experiment: Cell cycle arrest in human A549 cells assessed as accumulation at sub-G0 phase at 750 nM after 20 hrs by propidium iodide staining based flow cytometry (reference value: 6.6 +/- 0.1%); assay type: functional
[26] = Selectivity index, ratio of IC50 for antiproliferative activity against HEK293 cells to IC50 for antiproliferative activity against human HT-29 cells; assay type: toxicity, cell-based; details: HEK293 cells versus HT-29 cells, read-out: Ratio IC50
[27] = Selectivity index, ratio of IC50 for antiproliferative activity against HEK293 cells to IC50 for antiproliferative activity against human HL60 cells; assay type: toxicity, cell-based; details: HEK293 cells versus HL60 cells, read-out: Ratio IC50
[28] = Selectivity index, ratio of IC50 for antiproliferative activity against HEK293 cells to IC50 for antiproliferative activity against human HeLa cells; assay type: toxicity, cell-based; details: HEK293 cells versus HeLa cells, read-out: Ratio IC50
[29] = Selectivity index, ratio of IC50 for antiproliferative activity against HEK293 cells to IC50 for antiproliferative activity against human MCF7 cells; assay type: toxicity, cell-based; details: HEK293 cells versus MCF7 cells, read-out: Ratio IC50

| SMILES | IC50 (MDA-MB-231 [3]) | IC50 (HeLa) | IC50 (HT-29) | IC50 (HL-60) | IC50 (A549 [5]) | IC50 (MCF7) | IC50 (HEK293) | Activity (A549 [1]) | Activity (A549 [2]) | Activity (A549 [4]) | Activity (A549 [6]) | IC50 (HMEC-1 [7]) | further results |
| --- | --- | --- | --- | --- | --- | --- | --- | --- | --- | --- | --- | --- | --- |
| COc1ccc(/C=C\c2cc(OC)c(OC)c(OC)c2)cc1NC(=O)Oc1cccc(C(F)(F)F)c1 | 14.2 nM | 40 nM | 13 nM | 4 nM | 130 nM | 56 nM | 42.2 nM | – | – | – | – | 16 nM | Activity (A549 [17]): 41%; Activity (A549 [18]): 16%; Activity (A549 [19]): Active; Activity (A549 [20]): 15%; Activity (A549 [21]): Active; Activity (A549 [22]): 28% |
| COc1ccc(/C=C\c2cc(OC)c(OC)c(OC)c2)cc1NC(=O)Oc1ccc(F)cc1 | 13.8 nM | 60 nM | 60 nM | 50 nM | 400 nM | 95.4 nM | 185 nM | 34% | 26% | 19% | 21% | 65 nM | selectivity ratio [26]: 2 to 11; selectivity ratio [27]: 2 to 11; selectivity ratio [28]: 2 to 11; selectivity ratio [29]: 2 to 11 |

More lines, in order of falling IC50 (MDA-MB-231 [3]), values ahead:

| IC50 (MDA-MB-231 [3]) | IC50 (HeLa) | IC50 (HT-29) | IC50 (HL-60) | IC50 (A549 [5]) | IC50 (MCF7) | SMILES | IC50 (HEK293) | Activity (A549 [1]) | Activity (A549 [2]) | Activity (A549 [4]) | Activity (A549 [6]) | IC50 (HMEC-1 [7]) | further results |
| --- | --- | --- | --- | --- | --- | --- | --- | --- | --- | --- | --- | --- | --- |
| 13.6 nM | 23 nM | 46 nM | 67 nM | 390 nM | 25 nM | COc1ccc(/C=C\c2cc(OC)c(OC)c(OC)c2)cc1NC(=O)Oc1cccc(C)c1 | 40 nM | 36% | 26% | 16% | 22% | 50 nM | – |
| 12 nM | 130 nM | 260 nM | 620 nM | 1540 nM | 210 nM | COc1ccc(/C=C\c2cc(OC)c(OC)c(OC)c2)cc1NC(=O)Oc1cc(C)cc(C)c1 | 150 nM | – | – | – | – | 180 nM | Activity (A549 [23]): 16%; Activity (A549 [24]): 38%; Activity (A549 [25]): 22% |
| 8 nM | 3.4 nM | 4.8 nM | 4.9 nM | 160 nM | 7.18 nM | COc1cccc(OC(=O)Nc2cc(/C=C\c3cc(OC)c(OC)c(OC)c3)ccc2OC)c1 | 8.1 nM | – | – | – | – | 5 nM | Activity (A549 [8]): 31%; inhibition (MDA-MB-231 [9]): Active; Activity (A549 [10]): 17%; Activity (A549 [11]): Dose-dependent effect; Activity (A549 [12]): 49%; Activity (HMEC-1 [13]): Dose-dependent effect; Activity (A549 [14]): 36%; Activity (A549 [15]): 16%; Activity (A549 [16]): 92% |
